# Measured values as given in patent US20230142913A1, “TRICYCLIC HETEROARENES, PHARMACEUTICAL COMPOSITIONS CONTAINING THE SAME, AND METHODS OF USING THE SAME” (priority 2021, published 2023).
# Target: T1, recombinant human Myt1 (full length PKMYT1) (Homo sapiens, UniProt Q99640)
# T1 sequence (Q99640 1-499): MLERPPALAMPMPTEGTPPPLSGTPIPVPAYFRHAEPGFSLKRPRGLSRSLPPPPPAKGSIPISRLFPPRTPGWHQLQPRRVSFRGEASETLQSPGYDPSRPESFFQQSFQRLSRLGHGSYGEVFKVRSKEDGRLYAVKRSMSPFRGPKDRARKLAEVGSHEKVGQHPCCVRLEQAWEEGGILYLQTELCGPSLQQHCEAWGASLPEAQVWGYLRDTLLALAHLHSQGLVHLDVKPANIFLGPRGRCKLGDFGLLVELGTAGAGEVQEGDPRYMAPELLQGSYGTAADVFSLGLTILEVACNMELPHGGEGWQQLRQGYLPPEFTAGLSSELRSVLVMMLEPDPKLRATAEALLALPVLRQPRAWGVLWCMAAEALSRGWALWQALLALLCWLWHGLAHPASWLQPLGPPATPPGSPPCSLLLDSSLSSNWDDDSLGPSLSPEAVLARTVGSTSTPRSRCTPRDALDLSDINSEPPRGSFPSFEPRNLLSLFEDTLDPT
# Assay: Recombinant human Myt1 kinase assay (ADP-Glo)
# Conditions: not given
row,Compound,IC50
1,Cc1ccc(O)c(C2CC2)c1-n1c(N)c(C(N)=O)c2nc3ccccc3nc21 [Compound 11],2170 nM
2,Cc1ccc(O)c(C)c1-n1c(N)c(C(N)=O)c2nc3c(C4=CCOCC4)cccc3nc21 [Compound 34],12 nM
3,Cc1ccc(O)c(C)c1-n1c(N)c(C(N)=O)c2nc3c(-c4ccccc4)cccc3nc21 [Compound 36],17 nM
4,"Cc1ccc(O)cc1-n1c(N)c(C(=O)NC2CC2)c2nc3ccccc3nc21 [Compound 20, 2-amino-N-cyclopropyl-1-(5-hydroxy-2-methylphenyl)-1H-pyrrolo[2,3-b]quinoxaline-3-carboxamide]",7580 nM
5,NC(=O)c1c(N)n(-c2cc(O)ccc2Cl)c2nc3ccccc3nc12 [Compound 4],130 nM
6,"Cc1ccc(O)c(C)c1-n1cc(C(N)=O)c2cc3c(cnn3C)nc21 [Compound 89, 5-(3-hydroxy-2,6-dimethylphenyl)-1-methyl-1,5-dihydropyrazolo[4,3-b]pyrrolo[3,2-e]pyridine-7-carboxamide]",31 nM
7,CCc1c(O)ccc(C)c1-n1c(N)c(C(N)=O)c2nc3ccccc3nc21 [Compound 12],98 nM
8,Cc1ccc(O)c(C)c1-n1c(N)c(C(N)=O)c2nc3cc(C#Cc4cnccn4)ccc3nc21 [Compound 43],< 10 nM
9,Cc1ccc(O)c(C)c1-n1c(N)c(C(N)=O)c2nc3c(-c4cccn4C)cccc3nc21 [Compound 35],< 10 nM
10,Cc1c(O)ccc(C2CC2)c1-n1c(N)c(C(N)=O)c2nc3ccccc3nc21 [Compound 85],48900 nM
11,Cc1ccc(O)c(C)c1-n1c(N)c(C(N)=O)c2nc3cc(-c4cn[nH]c4)ccc3nc21 [Compound 54],< 10 nM
12,Cc1ccc(O)c(C)c1-n1c(N)c(C(N)=O)c2nc3c(nc21)CCCC3 [Compound 84],11 nM
13,Cc1ccc(O)c(C)c1-n1c(N)c(C(N)=O)c2nc3cc(-c4ccc(N5CCN(CCO)CC5)cc4)ccc3nc21 [Compound 52],< 10 nM
14,Cc1ccc(O)c(C)c1-n1c(N)c(C(N)=O)c2nc3c(C#CC4CC4)cccc3nc21 [Compound 33],16 nM
15,Cc1ccc(O)cc1-n1cc(C(N)=O)c2nc3ccccc3nc21 [Compound 23],323 nM
16,Cc1ccc(O)c(C)c1-n1c(N)c(C(N)=O)c2nc3cc(C#CCN4CCOCC4)ccc3nc21 [Compound 44],< 10 nM
17,Cc1ccc(O)c(C)c1-n1c(N)c(C(N)=O)c2nc3cc(-c4cccc(C#N)c4)ccc3nc21 [Compound 48],11 nM
18,NC(=O)c1c(N)n(-c2cccc3[nH]nc(Cl)c23)c2nc3ccccc3nc12 [Compound 8],289 nM

# Now from value to compound:
row,IC50,Compound
1,< 10 nM,Cc1ccc(O)c(C)c1-n1c(N)c(C(N)=O)c2nc3cc(C4=CCOCC4)ccc3nc21 [Compound 51]
2,94 nM,"Cc1ccc(O)cc1-n1c(N)c(C(N)=O)c2nc3nc(N)sc3nc21 [Compound 16, 2,6-diamino-5-(5-hydroxy-2-methylphenyl)-5H-pyrrolo[2,3-b]thiazolo[4,5-e]pyrazine-7-carboxamide]"
3,13 nM,"C=C(C)c1ccc2nc3c(C(N)=O)c(N)n(-c4c(C)ccc(O)c4C)c3nc2c1 [Compound 68, 2-amino-1-(3-hydroxy-2,6-dimethyl-phenyl)-7-isopropenyl-pyrrolo[3,2-b]quinoxaline-3-carboxamide or either 2-amino-1-(3-hydroxy-2,6-dimethyl-phenyl)-6-isopropenyl-pyrrolo[3,2-b]quinoxaline-3-carboxamide]"
4,< 10 nM,"Cc1ccc(O)c(C)c1-n1c(N)c(C(N)=O)c2nc3cc(CCCO)ccc3nc21 [Compound 46, 2-amino-1-(3-hydroxy-2,6-dimethyl-phenyl)-6-(3-hydroxypropyl)pyrrolo[2,3-b]quinoxaline-3-carboxamide]"
5,427 nM,CCc1ccc(O)c(C)c1-n1c(N)c(C(N)=O)c2nc3ccccc3nc21 [Compound 13]
6,281 nM,NC(=O)c1c(N)n(-c2cccc3[nH]nc(F)c23)c2nc3ccccc3nc12 [Compound 9]
7,< 10 nM,Cc1ccc(O)c(C)c1-n1c(N)c(C(N)=O)c2nc3cc(-c4ccccc4)ccc3nc21 [Compound 47]
8,< 10 nM,Cc1ccc(O)c(C)c1-n1c(N)c(C(N)=O)c2nc3c(F)ccc(F)c3nc21 [Compound 28]
9,< 10 nM,"Cc1ccc(O)c(C)c1-n1c(N)c(C(N)=O)c2nc3cc(C#CCO)ccc3nc21 [Compound 45, 2-amino-1-(3-hydroxy-2,6-dimethyl-phenyl)-6-(3-hydroxyprop-1-ynyl)pyrrolo[2,3-b]quinoxaline-3-carboxamide]"
10,32 nM,"Cc1ccc(O)c(C)c1-n1cc(C(N)=O)c2c3ccccc3cnc21 [Compound 88, 3-(3-hydroxy-2,6-dimethylphenyl)-3H-pyrrolo[2,3-c]isoquinoline-1-carboxamide]"
11,< 10 nM,Cc1ccc(O)c(C)c1-n1c(N)c(C(N)=O)c2nc3cc(C#CC4CC4)ccc3nc21 [Compound 40]
12,11 nM,Cc1ccc(O)c(C)c1-n1c(N)c(C(N)=O)c2nc3ccc(C#CCO)cc3nc21 [Compound 58]

# Same assay, conditions: Myt1 IC50 (nM), recombinant human Myt1 18 nM, ATP 10 μM, ADP-Glo luminescence
row,IC50,Compound
1,< 10 nM,Cc1ccc(O)c(C)c1-n1c(N)c(C(N)=O)c2nc3cccc(-c4ccnn4C)c3nc21 [Compound 61]
2,< 10 nM,"Cc1ccc(O)c(C)c1-n1c(N)c(C(N)=O)c2nc3cc(Br)ccc3nc21 [Compound 38, 2-amino-6-bromo-1-(3-hydroxy-2,6-dimethyl-phenyl)pyrrolo[2,3-b]quinoxaline-3-carboxamide]"
3,< 10 nM,"Cc1ccc(O)c(C)c1-n1c(N)c(C(N)=O)c2nc3cccc(Br)c3nc21 [Compound 59, 2-amino-8-bromo-1-(3-hydroxy-2,6-dimethyl-phenyl)pyrrolo[3,2-b]quinoxaline-3-carboxamide]"
4,< 10 nM,Cc1ccc(O)c(C)c1-n1c(N)c(C(N)=O)c2nc3cccc(C4=CCCC4)c3nc21 [Compound 62]

# Same assay, conditions: read-out: Myt1 IC50; recombinant human Myt1 18 nM, ATP 10 μM, ADP-Glo luminescence
row,Compound,IC50
1,"2-amino-1-(3-hydroxy-2,6-dimethyl-phenyl)-7-(1-hydroxy-1-methyl-ethyl)pyrrolo[3,2-b]quinoxaline-3-carboxamide or 2-amino-1-(3-hydroxy-2,6-dimethyl-phenyl)-6-(1-hydroxy-1-methyl-ethyl)pyrrolo[3,2-b]quinoxaline-3-carboxamide [Compound 67]",10 nM
2,"2-amino-1-(3-hydroxy-2,6-dimethylphenyl)-1H-pyrido[2,3-b]pyrrolo[2,3-e]pyrazine-3-carboxamide or 2-amino-1-(3-hydroxy-2,6-dimethylphenyl)-1H-pyrido[2,3-b]pyrrolo[3,2-e]pyrazine-3-carboxamide [Compound 82]",21 nM
3,"2-amino-1-(3-hydroxy-2,6-dimethyl-phenyl)-7-(morpholine-4-carbonyl)pyrrolo[3,2-b]quinoxaline-3-carboxamide or 2-amino-1-(3-hydroxy-2,6-dimethyl-phenyl)-6-(morpholine-4-carbonyl)pyrrolo[3,2-b]quinoxaline-3-carboxamide [Compound 66]",13 nM
4,"2-amino-7-bromo-1-(3-hydroxy-2,6-dimethylphenyl)-1H-pyrido[2,3-b]pyrrolo[2,3-e]pyrazine-3-carboxamide or 2-amino-6-bromo-1-(3-hydroxy-2,6-dimethylphenyl)-1H-pyrido[2,3-b]pyrrolo[3,2-e]pyrazine-3-carboxamide [Compound 79]",30 nM
